Where a SMILES comes first, the peptide text is derived from it. [ ]: non-standard residue; d: D form. dPra = C#CC[C@@H](N)C(=O)O; Ahx = NCCCCCC(=O)O
Tests used:
Type in all cases: cell-based
NF-κB activity = test: pTRE-EGFP reporter of NF-κB activity in LCL3 cells; conditions: LCL3, 6 hours
Procedure: (§1) We then investigate the inhibitory effects of our anti-LMP1 conjugates on the NF-κB pathway, which is one of the major pathways that EBV has hijacked for promoting cell growth and proliferation in EBV-associated tumours. Since NF-κB is typically activated by the canonical pathway which involves the nuclear translocation of the heterodimer of p50 and p65, immunofluorescence imaging of NF-κB p65 was then performed. Tumour necrosis factor alpha (TNFα) was added to these tumour cells, so as to activate the NF-κB pathway.
The antibodies including anti-LMP1 were purchased from Kerafast, while anti-NF-κB p65, anti-NF-κB p105/50, anti-histone H3, anti-GAPDH were purchased from Cell Signaling Technology. Anti-rabbit IgG HRP-linked, anti-mouse IgG HRP-linked, protease/phosphatase inhibitor cocktail were purchased from Cell Signaling Technology. Alexa Fluor 488-conjugated goat anti-mouse IgG, NucBlue fixed cell ready probes (DAPI), and ProLong gold antifade mountant with DAPI were purchased from Invitrogen. The transcriptional response element (TRE)-fluorescent protein reporter, pTRE-EGFP plasmid, was constructed as previously reported.
LCL3, AG876, AFB1 and C666-1 cells were grown in RPMI-1640 medium. HeLa cells were cultivated in DMEM medium and MRCS cells are cultivated in MEM medium (Gibco, USA). All media are supplemented with 10% fetal bovine serum and 1% penicillin/streptomycin antibiotics. […]

NF-κB p65 = test: Immunofluorescence imaging of NF-κB p65 after TNFα activation; conditions: for effect on p65 fluorescence signal: LCL3, 10 μM, 24 h, TNFα 10 ng/ml preincubation
Procedure: as §1
These assays were prepared and conducted at room temperature, unless otherwise stated. Cells with different treatment were fixed by formalin for 15 min. The samples were then washed with PBS and 0.2% Triton-X buffer was added onto the samples for 15 min. 3% BSA in PBS was served as the blocking buffer and applied onto the sample for 30 minutes at room temperature. The primary antibody was diluted in blocking buffer and added onto the sample at 4° C. overnight. The samples were washed with PBS and corresponding secondary antibodies were added over 1 h. Samples were washed with PBS and mountant was applied to each sample. Images were acquired either using a 370 nm laser excitation or from a 370 nm LED excitation of a Nikon Eclipse Ti2 Confocal Microscope. NIR images were captured by a NIRvana TE 640 camera. The signal enhancement of the C666-1 images were obtained by enhancing the exposure of the captured images by the NIS element AR software. Multiphoton microscopy was conducted by Leica TCS SP8 MP System.

NF-κB p65 and p50 = test: Western blot of nuclear NF-κB p65 and p50; conditions: for nuclear p65 and p50 expression: LCL3 and AFB1, TNFα 10 ng/mL pre-treatment, compared with control
Procedure: Western blot analysis was also carried out to validate the above imaging results for the components in NF-κB pathway. The LMP1-overexpressing LCL3 and AFB1 cell lines were used for this analysis. […] After 24 hours incubation, the nuclear extracts were separated for each treatment, and the expression of NF-κB p65 and p50 was detected by Western blot analysis. […] Western blots of individual replicates for NF-κB p65 and p50 in different cell lines were illustrated in FIG. 14. […] The reduction in NF-κB activity can contribute to the cytotoxicity of the three compounds towards LMP1-overexpressing cells.
Cells with different treatments were harvested and washed with phosphate-buffered saline (PBS). Lysis buffer supplied by 1X proteases-phosphatase inhibitor were added into the cells for 5 min on ice. Then the samples were centrifuged at 14,000×g at 4° C. for 20 minutes. The fractionated cell lysates were subjected to SDS-PAGE gel and transferred onto PVDF membranes. Membranes were then blocked by 3% non-fat milk for 30 minutes at room temperature and incubated with specific primary antibodies at 4° C. overnight. They were then washed with TBST buffer and incubated with corresponding secondary antibodies for 1 h at room temperature. Then, the membranes were washed with TBST, and chemiluminescence substrate was added onto the membrane surface. ChemiDoc XRS system and Image Lab Software were used to visualize the blot.

[1] = tested on: weakly LMP1-positive (C666-1) and LMP1-negative cell lines (HeLa, MRCS); test: MTT cytotoxicity assay, weakly LMP1-positive or LMP1-negative cells
Procedure: (§2) To study the effects of the designed probes on cell survival, the MTT cytotoxicity assay was carried out in several highly LMP1-positive (LCL3, AFB1, AG876), weakly LMP1-positive (C666-1) and LMP1- negative cell lines (HeLa, MRCS), as shown in FIG. 9.
(§3) LCL3, AG876, AFB1 and C666-1 cells were grown in RPMI-1640 medium. HeLa cells were cultivated in DMEM medium and MRCS cells are cultivated in MEM medium (Gibco, USA). All media are supplemented with 10% fetal bovine serum and 1% penicillin/streptomycin antibiotics. All the cells are cultivated in a humidified incubator with 5% CO2 at 37° C. The pTRE-EGFP plasmid was transduced into LCL3 cells as previously mentioned.

[2] = MTT cytotoxicity assay, all selected cell lines; conditions: read-out: LC50 (the source's name)
Procedure: as §2, §3

C#CC[C@@H](N)C(=O)N[C@@H](CCCCN)C(=O)NCCCCCC(=O)N[C@@H](CCCCN)C(=O)N[C@@H](CC(C)C)C(=O)N[C@@H](CC(=O)O)C(=O)N[C@@H](CC(C)C)C(=O)N[C@@H](C)C(=O)N[C@@H](CC(C)C)C(=O)N[C@@H](CCCCN)C(=O)N[C@@H](Cc1ccccc1)C(=O)N[C@@H](Cc1c[nH]c2ccccc12)C(=O)N[C@@H](CC(C)C)C(=O)N[C@@H](Cc1ccc(O)cc1)C(=O)N[C@@H](CCCCN)C(=O)N[C@H](C(=O)N[C@H](C(=O)N[C@@H](CCSC)C(=O)N[C@@H](CO)C(=O)N[C@@H](CC(=O)O)C(=O)N[C@@H](CCCCN)C(=O)N[C@@H](Cc1c[nH]c2ccccc12)C(=O)N[C@@H](CCCCN)C(=O)N[C@@H](CCCNC(=N)N)C(=O)N[C@H](CCCNC(=N)N)C(=O)N[C@@H](CCCNC(=N)N)C(=O)N[C@@H](CCCCN)C(=O)O)C(C)C)[C@@H](C)CC [P19, Pra-KAhx-K-LDLALK-FWLY-K-IVMSDKW-K-RrRK] (H-[dPra]K[Ahx]KLDLALKFWLYKIVMSDKWKR[dR]RK-OH; N-terminus and C-terminus assumed)
GFP reporter signals (NF-κB activity): decreased
effect on p65 fluorescence signal (NF-κB p65): significant suppression
effect on NF-κB pathway (p65 fluorescence) (NF-κB p65; LMP1-negative HeLa and weak LMP1-expressing C666-1 cells): did not exhibit any effect
changes in expression of p65 and p50 (NF-κB p65 and p50; C666-1 and HeLa cells): relatively minor
nuclear p65 and p50 expression (NF-κB p65 and p50): significantly weakened
cytotoxicity [1]: relatively low

C#CC[C@@H](N)C(=O)N[C@@H](CCCCN)C(=O)NCCCCCC(=O)N[C@@H](CCCCN)C(=O)N[C@@H](CC(C)C)C(=O)N[C@@H](CC(=O)O)C(=O)N[C@@H](CC(C)C)C(=O)N[C@@H](C)C(=O)N[C@@H](CC(C)C)C(=O)N[C@@H](CCCCN)C(=O)N[C@@H](C)C(=O)N[C@@H](C)C(=O)N[C@@H](C)C(=O)N[C@@H](C)C(=O)N[C@@H](CCCCN)C(=O)N[C@H](C(=O)N[C@H](C(=O)N[C@@H](CCSC)C(=O)N[C@@H](CO)C(=O)N[C@@H](CC(=O)O)C(=O)N[C@@H](CCCCN)C(=O)N[C@@H](Cc1c[nH]c2ccccc12)C(=O)N[C@@H](CCCCN)C(=O)N[C@@H](CCCNC(=N)N)C(=O)N[C@H](CCCNC(=N)N)C(=O)N[C@@H](CCCNC(=N)N)C(=O)N[C@@H](CCCCN)C(=O)O)C(C)C)[C@@H](C)CC [P19C, reference compound] (H-[dPra]K[Ahx]KLDLALKAAAAKIVMSDKWKR[dR]RK-OH; N-terminus and C-terminus assumed)
CC50 [2]: > 200 µM
effect on p65 fluorescence signal (NF-κB p65): no significant effect
nuclear p65 and p50 expression (NF-κB p65 and p50): no obvious change
